Target: T1, c-Met receptor tyrosine kinase, GST-c-Met(969-1390) (Homo sapiens, UniProt P08581)
T1 construct: made in house
Experiment: EPK c-Met profiling assay (LanthaScreen TR-FRET kinase assay)
Assay type: biochemical
Details: 2 μM ATP, 0.3 nM enzyme, 60 minutes at room temperature
Experimental: A number of compounds of the present invention were assayed in an antibody based kinase phosphorylation assay as follows.
Epk c-Met Profiling Assay:
The EPK kinase assay for c-Met receptor tyrosine kinase was developed, using the purified recombinant GST-fusion protein, containing the cytoplasmic domain of the enzyme. GST-c-Met(969-1390) was purified by affinity chromatography.
The kinase assay is based on the LanthaScreen™ technology. LanthaScreen™ is the detection of Time-Resolved Fluorescence Resonance Energy Transfer (TR-FRET) using lanthanide chelates to measure interactions between various binding partners. In a TR-FRET kinase assay, a long-lifetime lanthanide donor species is conjugated to an antibody that specifically binds to a phosphorylated product of a kinase reaction that is labeled with a suitable acceptor fluorophore. This antibody-mediated interaction brings the lanthanide donor and the acceptor into proximity such that resonance energy transfer can take place, resulting in a detectible increase in the FRET signal.
The kinase reactions were performed in 384 well microtiter plates in a total reaction volume of 9.05 μL. The assay plates were prepared with 0.05 μL per well of test compound in the appropriate test concentration, as described under “preparation of compound dilutions”. The reactions were started by combining 4.5 μL of ATP solution with 4.5 μL of enzyme-substrate mix (consisting of kinase and substrate). The final concentrations in the kinase reactions were 35 mM Tris/HCl, 1 mM DTT, 0.025% Tween20, 10 μM sodium orthovanadate, 0.25% BSA, 0.6% DMSO, 10 mM MgCl2, 3 mM MnCl2, 2 μM ATP, 50 nM Fluorescein-PolyEAY, and 0.3 nM enzyme.
The reactions were incubated for 60 minutes at room temperature and stopped by adding 4.5 μL of stop buffer (50 mM EDTA, 0.04% NP40, 20 mM Tris/HCl).
Subsequently 4.5 μL of detection mix (50 mM Tris/HCl, 2 mM DTT, 0.05% Tween20, 20 μM sodium orthovanadate, 1% BSA, 1.72 μg/mL Tb-PY20 antibody) were added to the stopped reactions. After 30 minutes incubation at room temperature, the plates were measured in a BMG Pherastar fluorescence reader. The effect of compound on the enzymatic activity was in all assays obtained from the linear progress curves and determined from one reading (end point measurement).
Preparation of Compound Dilutions
Test compounds were dissolved in DMSO (10 mM) and transferred into 1.4 mL flat bottom or V-shaped Matrix tubes carrying a unique 2D matrix. The stock solutions were stored at −20° C. if not used immediately. For the test procedure the vials were defrosted and identified by a scanner whereby a working sheet was generated that guided the subsequent working steps.
Compound dilutions were made in 96 well plates. This format enabled the assay of maximally 40 individual test compounds at 8 concentrations (single points) including 4 reference compounds. The dilution protocol included the production of “pre-dilution plates”, “master plates” and “assay plates”.
Pre-dilution plates: 96 polypropylene well plates were used as pre-dilution plates. A total of 4 pre-dilution plates were prepared including 10 test compounds each on the plate positions A1-A10, one standard compound at A11 and one DMSO control at A12. All dilution steps were done on a HamiltonSTAR robot.
Master plates: 100 μL of individual compound dilutions including standard compound and controls of the 4 “pre-dilution plates” were transferred into a 384 “master plate” including the following concentrations 1′820, 564, 182, 54.6, 18.2, 5.46, 1.82 and 0.546 μM, respectively in 90% of DMSO.
Assay plates: Identical “assay plates” were then prepared by pipetting 50 nL each of compound dilutions of the “master plates” into 384-well “assay plates” by means of a HummingBird 384-channel dispenser. These plates were used directly for the assay which was performed in a total volume of 9.05 μL. […]

T1 sequence (P08581 969-1390): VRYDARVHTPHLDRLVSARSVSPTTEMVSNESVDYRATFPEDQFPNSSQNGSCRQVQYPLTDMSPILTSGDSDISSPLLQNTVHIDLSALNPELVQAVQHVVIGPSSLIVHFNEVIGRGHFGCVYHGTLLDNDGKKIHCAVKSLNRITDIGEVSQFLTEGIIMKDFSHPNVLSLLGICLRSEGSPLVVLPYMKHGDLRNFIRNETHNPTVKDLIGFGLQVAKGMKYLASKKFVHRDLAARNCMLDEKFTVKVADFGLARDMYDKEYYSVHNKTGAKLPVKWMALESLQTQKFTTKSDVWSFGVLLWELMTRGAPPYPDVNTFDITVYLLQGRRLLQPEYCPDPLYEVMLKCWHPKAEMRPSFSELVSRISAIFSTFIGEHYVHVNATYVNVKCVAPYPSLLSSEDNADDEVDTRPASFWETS

Row | Compound | IC50 [µM]
1 | CC(c1c(F)cc2ncccc2c1F)c1cnc2ccc(N3CCN(C=O)CC3)nn12 (racemic) [Example 12, (rac)-4-{3-[1-(5,7-Difluoro-quinolin-6-yl)-ethyl]-imidazo[1,2-b]pyridazin-6-yl}-piperazine-1-carbaldehyde] | 0.008
2 | COC(=O)N1CCN(c2ccc3ncc(C(C)c4c(F)cc5ncccc5c4F)n3n2)CC1 (racemic) [Example 14, (rac)-4-{3-[1-(5,7-Difluoro-quinolin-6-yl)-ethyl]-imidazo[1,2-b]pyridazin-6-yl}-piperazine-1-carboxylic acid methyl ester] | 0.0079
3 | CC(c1c(F)cc2ncccc2c1F)c1cnc2ccc(N3CCNC(=O)C3C)nn12 (racemic) [Example 18, (rac)-4-{3-[1-(5,7-Difluoro-quinolin-6-yl)-ethyl]-imidazo[1,2-b]pyridazin-6-yl}-3-methyl-piperazin-2-one] | 0.0083
4 | C[C@H](c1c(F)cc2ncccc2c1F)c1cnc2ccc(N3CCNC(=O)C3)nn12 (single isomer, unassigned) [Example 4] | 0.68
5 | CN1CCN(c2ccc3ncc(Cc4cc5cccnc5cc4F)n3n2)CC1=O [Example 37, 4-[3-(7-Fluoro-quinolin-6-ylmethyl)-imidazo[1,2-b]pyridazin-6-yl]-1-methyl-piperazin-2-one] | 0.058
6 | O=C1CN(c2ccc3ncc(Cc4cc5cccnc5cc4F)n3n2)CCN1 [Example 38, 4-[3-(7-Fluoro-quinolin-6-ylmethyl)-imidazo[1,2-b]pyridazin-6-yl]-piperazin-2-one] | 0.031
7 | CC(=O)N1CCN(c2ccc3ncc(Cc4cc5cccnc5cc4F)n3n2)CC1 [Example 39, 1-{4-[3-(7-Fluoro-quinolin-6-ylmethyl)-imidazo[1,2-b]pyridazin-6-yl]-piperazin-1-yl}-ethanone] | 0.084
8 | CN1CCN(c2ccc3ncc(Cc4ccc5ncccc5c4F)n3n2)CC1=O [Example 43, 4-[3-(5-Fluoro-quinolin-6-ylmethyl)-imidazo[1,2-b]pyridazin-6-yl]-1-methyl-piperazin-2-one] | 0.084
9 | CC(=O)N1CCN(c2ccc3ncc(Cc4ccc5ncccc5c4F)n3n2)CC1 [Example 45, 1-{4-[3-(5-Fluoro-quinolin-6-ylmethyl)-imidazo[1,2-b]pyridazin-6-yl]-piperazin-1-yl}-ethanone] | 0.17
10 | CC(=O)N1CCN(c2ccc3ncc(Cc4c(F)cc5c(cnn5C)c4F)n3n2)CC1 [Example 55, 1-(4-(3-((4,6-difluoro-1-methyl-1H-indazol-5-yl)methyl)imidazo[1,2-b]pyridazin-6-yl)piperazin-1-yl)ethanone] | 0.029

Tested on: MET-amplified gastric cancer cell line GTL-16
Experiment: GTL-16 proliferation assay (MTS)
Assay type: cell-based
Details: Homo sapiens, GTL-16 cells, 72 h incubation
Experimental: C-Met Dependent Cellular Assays
A number of compounds of the present invention were assayed in a c-Met dependent proliferation and phosphorylation assay as follows.
GTL-16 proliferation assay: the MET-amplified gastric cancer cell line GTL-16 was grown under standard cell culture conditions in DMEM [Dulbecco's Modified Eagle Medium] (high glucose) supplemented with 10% heat-inactivated fetal calf serum and 2 mM L-glutamine. For proliferation assays, cells were seeded at 3000 per well in 96-well-plates. 24 h later, a 10-point dilution series of each compound (3-fold steps, ranging from […]) was prepared in DMSO. Compound were then diluted 1000-fold in growth media in two steps and added to cells in triplicates, resulting in a final volume of […] per well and maximal final compound concentrations of […]. A DMSO-only control was included. Cells were incubated for 72 h and the amount of viable cells was then measured by adding […] of MTS reagent (CellTiter 96® AQueous Non-Radioactive Cell Proliferation Assay, Promega), further incubation for 30′, and reading the optical density at 490 nm.

Row | Compound | IC50 [µM]
11 | CC(c1c(F)cc2ncccc2c1F)c1cnc2ccc(N3CCNC(=O)C3C)nn12 (racemic) [Example 18, (rac)-4-{3-[1-(5,7-Difluoro-quinolin-6-yl)-ethyl]-imidazo[1,2-b]pyridazin-6-yl}-3-methyl-piperazin-2-one] | 0.0092

Reference: US8389526B2, “3-heteroarylmethyl-imidazo[1,2-b]pyridazin-6-yl derivatives” (Novartis AG, priority 2009, dated 2013)
